Measured values as given in patent US10392367B2, “IRE1 small molecule inhibitors” (QUENTIS THERAPEUTICS, INC., priority 2017, dated 2019).

Columns and labels:
[1] = molecular target: T1, IRE1a (Homo sapiens, UniProt O75460); assay: IRE1a Endoribonuclease Nanoluciferase Assay (XBP1 luciferase reporter in 293 T cells); assay type: cell-based; settings: 293 T cells transfected with XBP1 luciferase reporter plasmid
Description: Compounds disclosed herein were assessed for disruption of IRE1 signaling using a IRE1a Endoribonuclease Nanoluciferase Assay. Briefly, 2.5×10^6 293 T cells were seeded in a 10 cm^2 tissue culture plate. About 24 hours later, the cells were transfected with Effectene. In a 15 mL Tube, the following was added: 2 μg XBP1 luciferase reporter plasmid (PGK-Luc2-P2A-XBP1u-Nanoluciferase-PEST); 300 μl EC buffer; and 16 μl Enhancer, followed by incubation at room temp for 5 minutes. Next, 60 μl Effectene (Qiagen 301427) was added, followed by incubation at room temperature for 10 minutes. 2.6 mL cDMEM media was added. Old media was aspirated from the cells, followed by addition of 7 mL fresh media. Full transfection mixture was added dropwise to cells. Cells were incubated for 6 hours, followed by tripsinization, centrifugation and resuspension in 11 mL media. 100 uL of cells were plated per a well in a 96 well plate. A day later, stressors of choice+/− inhibitors were added. To harvest, media was aspirated from cells completely, then 50 uL 1× passive lysis buffer (Promega: E1941) was added per well and put on shaker (300 rpm) for 30 minutes at room temperature. Cells were centrifuged, and 15 uL sample per well was added to a new, opaque white 384 well plate (Corning 3570). 15 uL OneGlo (nanoluciferase kit, Promega N1630) was added. Plates were spun down, placed on shaker (300 rpm) for 10 minutes. Plates were read on luminometer, 1000 ms integration time per well. 15 uL Stop and Glo (nanoluciferase kit) was added. Plates were spun down, placed on shaker (300 rpm) for 10 minutes. Plates were read on luminometer, 1000 ms second integration time per well. Recordings are provided below in Table 4.

[2] = molecular target: T1, IRE1a; assay: In vitro FRET assay (XBP1 RNA probe cleavage by IRE1a); assay type: biochemical; set-up: purchased SignalChem; settings: SignalChem IRE1a protein 2 nM
Description: In vitro FRET assay was performed to evaluate the ability of select compounds to inhibit IRE1, the results of which are summarized in Table 3. To perform the in vitro FRET assay, 1× complete assay buffer (CAB; […] DTT, 50 mM sodium citrate pH 7.15, 1 mM magnesium acetate, 0.02% tween 20) was used to dilute SignalChem IRE1a protein to a final concentration of 2 nM. Selected compounds were serially diluted with DMSO in a non-binding black 384-well plate for a total of 15 ul in each well. 2 ul of the serially diluted compound or DMSO control were then added to new wells containing 98 ul of 1×CAB, for a total volume of 100 ul, 10 ul of which were then transferred to wells of a new plate. 5 ul of the diluted IRE1a was then added to each well. 5 ul of a […] XBP1 RNA probe was then added to each well. Fluorescence was then read over 30 minutes in kinetic mode (485/515 nm).
Two RNA probes were used, XBP1 wildtype (SEQ ID NO: 2) which is able to be spliced by active IRE1a or XBP1 mutant (SEQ ID NO: 3) which is unable to be spliced. Each probe contained a 5′ 6-FAM modification and a 3′ IOWA Black FQ modification.

T1 sequence (O75460 19-977): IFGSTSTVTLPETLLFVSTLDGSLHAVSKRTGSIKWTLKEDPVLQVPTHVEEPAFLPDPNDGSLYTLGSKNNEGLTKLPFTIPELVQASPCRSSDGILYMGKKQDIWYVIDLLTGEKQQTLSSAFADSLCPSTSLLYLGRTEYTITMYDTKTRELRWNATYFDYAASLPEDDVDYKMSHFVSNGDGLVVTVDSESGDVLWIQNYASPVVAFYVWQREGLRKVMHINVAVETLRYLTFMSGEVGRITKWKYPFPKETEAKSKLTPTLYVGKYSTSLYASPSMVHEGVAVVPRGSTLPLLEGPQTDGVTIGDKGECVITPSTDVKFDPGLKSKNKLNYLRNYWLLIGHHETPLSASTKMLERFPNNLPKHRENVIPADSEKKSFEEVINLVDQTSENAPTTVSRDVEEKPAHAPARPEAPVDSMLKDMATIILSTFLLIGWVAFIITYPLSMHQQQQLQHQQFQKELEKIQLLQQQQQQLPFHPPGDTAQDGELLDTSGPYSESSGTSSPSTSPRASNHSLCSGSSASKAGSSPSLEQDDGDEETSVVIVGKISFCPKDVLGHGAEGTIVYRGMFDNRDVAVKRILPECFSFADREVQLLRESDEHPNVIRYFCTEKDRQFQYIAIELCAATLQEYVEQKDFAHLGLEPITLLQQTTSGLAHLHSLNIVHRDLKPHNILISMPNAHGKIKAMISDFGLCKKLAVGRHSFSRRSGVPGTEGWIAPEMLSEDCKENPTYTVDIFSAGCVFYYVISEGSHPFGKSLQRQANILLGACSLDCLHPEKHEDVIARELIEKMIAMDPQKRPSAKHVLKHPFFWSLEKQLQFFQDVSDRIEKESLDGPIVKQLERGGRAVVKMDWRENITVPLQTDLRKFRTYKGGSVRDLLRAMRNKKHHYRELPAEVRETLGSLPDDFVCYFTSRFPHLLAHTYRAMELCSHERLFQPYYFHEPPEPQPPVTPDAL

| EC50 [1] | IC50 [2] | SMILES |
| --- | --- | --- |
| ≤ 5 nM | ≤ 5 nM | CCc1cc(-c2cc(NC(=O)Cc3ccc(OC4CCN(C)CC4)c(C(F)(F)F)c3)nn2C)cc2cnc(N[C@H]3CC[C@H](N)CC3)nc12 [Compound 32, N-(5-(2-(((1r,4r)-4-aminocyclohexyl)amino)-8-ethylquinazolin-6-yl)-1-methyl-1H-pyrazol-3-yl)-2-(4-((1-methylpiperidin-4-yl)oxy)-3-(trifluoromethyl)phenyl)acetamide] |
| 5 to 50 nM | ≤ 5 nM | CCc1cc(-c2cc(NC(=O)Cc3cc(C(F)(F)F)ccc3C)nn2C)cc2cnc(N[C@H]3CC[C@H](N)CC3)nc12 [Compound 34, N-(5-(2-(((1r,4r)-4-aminocyclohexyl)amino)-8-ethylquinazolin-6-yl)-1-methyl-1H-pyrazol-3-yl)-2-(2-methyl-5-(trifluoromethyl)phenyl)acetamide] |
| 5 to 50 nM | ≤ 5 nM | CCc1cc(-c2cc(NC(=O)Nc3cc(C(F)(F)F)ccc3C(F)(F)F)nn2C)cc2cnc(N[C@H]3CC[C@H](N)CC3)nc12 [Compound 35, 1-(5-(2-(((1r,4r)-4-aminocyclohexyl)amino)-8-ethylquinazolin-6-yl)-1-methyl-1H-pyrazol-3-yl)-3-(2,5-bis(trifluoromethyl)phenyl)urea] |
| 5 to 50 nM | ≤ 5 nM | CCc1cc(-c2cc(CC(=O)Nc3ccc(OCCCNC)c(C(F)(F)F)c3)nn2C)cc2cnc(N[C@H]3CC[C@H](N)CC3)nc12 [Compound 37, 2-(5-(2-(((1r,4r)-4-aminocyclohexyl)amino)-8-ethylquinazolin-6-yl)-1-methyl-1H-pyrazol-3-yl)-N-(4-(3-(methylamino)propoxy)-3-(trifluoromethyl)phenyl)acetamide] |
| 5 to 50 nM | ≤ 5 nM | CCc1cc(-c2cc(NC(=O)Cc3cccc(C(F)(F)F)c3)nn2C)cc2cnc(N[C@H]3CC[C@H](N(C)C)CC3)nc12 [Compound 39, N-(5-(2-(((1r,4r)-4-(dimethylamino)cyclohexyl)amino)-8-ethylquinazolin-6-yl)-1-methyl-1H-pyrazol-3-yl)-2-(3-(trifluoromethyl)phenyl)acetamide] |
| 50 to 100 nM | ≤ 5 nM | CCc1cc(-c2cc(NC(=O)Cc3cccc(C(F)(F)F)c3)nn2C)cc2cnc(N[C@H]3CC[C@H](NCCOC)CC3)nc12 [Compound 40, N-(5-(8-ethyl-2-(((1r,4r)-4-((2-methoxyethyl)amino)cyclohexyl)amino)quinazolin-6-yl)-1-methyl-1H-pyrazol-3-yl)-2-(3-(trifluoromethyl)phenyl)acetamide] |
| > 100 nM | > 100 nM | CCc1cc(-c2cc(NC(=O)Cc3cc(C(F)(F)F)ccc3C(F)(F)F)nn2C)cc2cnc(N[C@H]3CC[C@H](NC(C)=O)CC3)nc12 [Compound 41, N-(5-(2-(((1r,4r)-4-acetamidocyclohexyl)amino)-8-ethylquinazolin-6-yl)-1-methyl-1H-pyrazol-3-yl)-2-(2,5-bis(trifluoromethyl)phenyl)acetamide] |
| > 100 nM | > 100 nM | CCc1cc(-c2cc(NC(=O)Cc3cc(C(F)(F)F)ccc3C(F)(F)F)nn2C)cc2cnc(N[C@H]3CC[C@H](NC(=O)COC)CC3)nc12 [Compound 42, 2-(2,5-bis(trifluoromethyl)phenyl)-N-(5-(8-ethyl-2-(((1r,4r)-4-(2-methoxyacetamido)cyclohexyl)amino)quinazolin-6-yl)-1-methyl-1H-pyrazol-3-yl)acetamide] |
| 5 to 50 nM | ≤ 5 nM | CCc1cc(-c2cc(NC(=O)Cc3cc(C(F)(F)F)ccc3OC)nn2C)cc2cnc(N[C@H]3CC[C@H](N)CC3)nc12 [Compound 43, N-(5-(2-(((1r,4r)-4-aminocyclohexyl)amino)-8-ethylquinazolin-6-yl)-1-methyl-1H-pyrazol-3-yl)-2-(2-methoxy-5-(trifluoromethyl)phenyl)acetamide] |
| 50 to 100 nM | 50 to 100 nM | CCc1cc(-c2cc(NC(=O)Cc3cc(C(F)(F)F)ccc3C(F)(F)F)nn2C)cc2cnc(N[C@H]3CC[C@H](NC(=O)CN)CC3)nc12 [Compound 44, 2-amino-N-((1r,4r)-4-((6-(3-(2-(2,5-bis(trifluoromethyl)phenyl)acetamido)-1-methyl-1H-pyrazol-5-yl)-8-ethylquinazolin-2-yl)amino)cyclohexyl)acetamide] |
